Assay: In vitro release of model drugs methylene blue and BSA from NIPAAm-co-Dex-lactateHEMA hydrogel
Format: physicochemical
Conditions: methylene blue from NIPAAm-co-Dex-lactateHEMA gel 5/4 (FIG. 9), PBS pH 7.4, 37° C.
Protocol: To test the potential of the developed hydrogels as drug release devices, two model drugs (22.5 mg) were loaded during the hydrogel synthesis, which were methylene blue and bovine serum albumin (BSA), representing small molecules and protein drugs, respectively. BSA- or methylene blue-loaded dry gels were immersed in a certain volume of PBS (pH 7.4) at 25 or 37° C. At selected time points, small volume of samples were taken and tested for solute concentration. The same volume of fresh PBS (pH 7.4) was replaced to maintain a constant volume of release medium. Concentration of methylene blue was measured by a UV spectrophotometer at 668 nm. Concentration of BSA was determined through Bradford protein assay.

CN(C)c1ccc2nc3ccc(=[N+](C)C)cc-3sc2c1 [methylene blue]
loaded drug released in initial burst: more than 70% | time after which drug release reached a stable stage: three
